Results taken from patent US8389526B2, “3-heteroarylmethyl-imidazo[1,2-b]pyridazin-6-yl derivatives” (Novartis AG, priority 2009, dated 2013).
pIC50: −log10 of the molar value.

Key:
[1] = target: T1, c-Met receptor tyrosine kinase, GST-c-Met(969-1390) (Homo sapiens, UniProt P08581); experiment: EPK c-Met profiling assay (LanthaScreen TR-FRET kinase assay); type: biochemical; conditions: 2 μM ATP, 0.3 nM enzyme, 60 minutes at room temperature
T1 construct: made in house
Description: A number of compounds of the present invention were assayed in an antibody based kinase phosphorylation assay as follows.
Epk c-Met Profiling Assay:
The EPK kinase assay for c-Met receptor tyrosine kinase was developed, using the purified recombinant GST-fusion protein, containing the cytoplasmic domain of the enzyme. GST-c-Met(969-1390) was purified by affinity chromatography.
The kinase assay is based on the LanthaScreen™ technology. LanthaScreen™ is the detection of Time-Resolved Fluorescence Resonance Energy Transfer (TR-FRET) using lanthanide chelates to measure interactions between various binding partners. In a TR-FRET kinase assay, a long-lifetime lanthanide donor species is conjugated to an antibody that specifically binds to a phosphorylated product of a kinase reaction that is labeled with a suitable acceptor fluorophore. This antibody-mediated interaction brings the lanthanide donor and the acceptor into proximity such that resonance energy transfer can take place, resulting in a detectible increase in the FRET signal.
The kinase reactions were performed in 384 well microtiter plates in a total reaction volume of 9.05 μL. The assay plates were prepared with 0.05 μL per well of test compound in the appropriate test concentration, as described under “preparation of compound dilutions”. The reactions were started by combining 4.5 μL of ATP solution with 4.5 μL of enzyme-substrate mix (consisting of kinase and substrate). The final concentrations in the kinase reactions were 35 mM Tris/HCl, 1 mM DTT, 0.025% Tween20, 10 μM sodium orthovanadate, 0.25% BSA, 0.6% DMSO, 10 mM MgCl2, 3 mM MnCl2, 2 μM ATP, 50 nM Fluorescein-PolyEAY, and 0.3 nM enzyme.
The reactions were incubated for 60 minutes at room temperature and stopped by adding 4.5 μL of stop buffer (50 mM EDTA, 0.04% NP40, 20 mM Tris/HCl).
Subsequently 4.5 μL of detection mix (50 mM Tris/HCl, 2 mM DTT, 0.05% Tween20, 20 μM sodium orthovanadate, 1% BSA, 1.72 μg/mL Tb-PY20 antibody) were added to the stopped reactions. After 30 minutes incubation at room temperature, the plates were measured in a BMG Pherastar fluorescence reader. The effect of compound on the enzymatic activity was in all assays obtained from the linear progress curves and determined from one reading (end point measurement).
Preparation of Compound Dilutions
Test compounds were dissolved in DMSO (10 mM) and transferred into 1.4 mL flat bottom or V-shaped Matrix tubes carrying a unique 2D matrix. The stock solutions were stored at −20° C. if not used immediately. For the test procedure the vials were defrosted and identified by a scanner whereby a working sheet was generated that guided the subsequent working steps.
Compound dilutions were made in 96 well plates. This format enabled the assay of maximally 40 individual test compounds at 8 concentrations (single points) including 4 reference compounds. The dilution protocol included the production of “pre-dilution plates”, “master plates” and “assay plates”.
Pre-dilution plates: 96 polypropylene well plates were used as pre-dilution plates. A total of 4 pre-dilution plates were prepared including 10 test compounds each on the plate positions A1-A10, one standard compound at A11 and one DMSO control at A12. All dilution steps were done on a HamiltonSTAR robot.
Master plates: 100 μL of individual compound dilutions including standard compound and controls of the 4 “pre-dilution plates” were transferred into a 384 “master plate” including the following concentrations 1′820, 564, 182, 54.6, 18.2, 5.46, 1.82 and 0.546 μM, respectively in 90% of DMSO.
Assay plates: Identical “assay plates” were then prepared by pipetting 50 nL each of compound dilutions of the “master plates” into 384-well “assay plates” by means of a HummingBird 384-channel dispenser. These plates were used directly for the assay which was performed in a total volume of 9.05 μL. […]

[2] = tested on: MET-amplified gastric cancer cell line GTL-16; experiment: GTL-16 proliferation assay (MTS); type: cell-based; conditions: Homo sapiens, GTL-16 cells, 72 h incubation
Description: (§1) C-Met Dependent Cellular Assays
(§2) A number of compounds of the present invention were assayed in a c-Met dependent proliferation and phosphorylation assay as follows.
GTL-16 proliferation assay: the MET-amplified gastric cancer cell line GTL-16 was grown under standard cell culture conditions in DMEM [Dulbecco's Modified Eagle Medium] (high glucose) supplemented with 10% heat-inactivated fetal calf serum and 2 mM L-glutamine. For proliferation assays, cells were seeded at 3000 per well in 96-well-plates. 24 h later, a 10-point dilution series of each compound (3-fold steps, ranging from […]) was prepared in DMSO. Compound were then diluted 1000-fold in growth media in two steps and added to cells in triplicates, resulting in a final volume of […] per well and maximal final compound concentrations of […]. A DMSO-only control was included. Cells were incubated for 72 h and the amount of viable cells was then measured by adding […] of MTS reagent (CellTiter 96® AQueous Non-Radioactive Cell Proliferation Assay, Promega), further incubation for 30′, and reading the optical density at 490 nm.

[3] = target: T2, c-Met (Homo sapiens, UniProt P08581); experiment: GTL-16 c-Met autophosphorylation measured by AlphaScreen detection; type: cell-based; conditions: GTL-16 cells, 1 h incubation, AlphaScreen p-c-Met; read-out: GTL-16 IC50 c-Met phosphorylation
T2 construct: adapted to measure the phosphorylation of endogenous cellular proteins in cell lysates; endogenous in cells; host or cells: GTL-16
T2 sequence (P08581 25-1390): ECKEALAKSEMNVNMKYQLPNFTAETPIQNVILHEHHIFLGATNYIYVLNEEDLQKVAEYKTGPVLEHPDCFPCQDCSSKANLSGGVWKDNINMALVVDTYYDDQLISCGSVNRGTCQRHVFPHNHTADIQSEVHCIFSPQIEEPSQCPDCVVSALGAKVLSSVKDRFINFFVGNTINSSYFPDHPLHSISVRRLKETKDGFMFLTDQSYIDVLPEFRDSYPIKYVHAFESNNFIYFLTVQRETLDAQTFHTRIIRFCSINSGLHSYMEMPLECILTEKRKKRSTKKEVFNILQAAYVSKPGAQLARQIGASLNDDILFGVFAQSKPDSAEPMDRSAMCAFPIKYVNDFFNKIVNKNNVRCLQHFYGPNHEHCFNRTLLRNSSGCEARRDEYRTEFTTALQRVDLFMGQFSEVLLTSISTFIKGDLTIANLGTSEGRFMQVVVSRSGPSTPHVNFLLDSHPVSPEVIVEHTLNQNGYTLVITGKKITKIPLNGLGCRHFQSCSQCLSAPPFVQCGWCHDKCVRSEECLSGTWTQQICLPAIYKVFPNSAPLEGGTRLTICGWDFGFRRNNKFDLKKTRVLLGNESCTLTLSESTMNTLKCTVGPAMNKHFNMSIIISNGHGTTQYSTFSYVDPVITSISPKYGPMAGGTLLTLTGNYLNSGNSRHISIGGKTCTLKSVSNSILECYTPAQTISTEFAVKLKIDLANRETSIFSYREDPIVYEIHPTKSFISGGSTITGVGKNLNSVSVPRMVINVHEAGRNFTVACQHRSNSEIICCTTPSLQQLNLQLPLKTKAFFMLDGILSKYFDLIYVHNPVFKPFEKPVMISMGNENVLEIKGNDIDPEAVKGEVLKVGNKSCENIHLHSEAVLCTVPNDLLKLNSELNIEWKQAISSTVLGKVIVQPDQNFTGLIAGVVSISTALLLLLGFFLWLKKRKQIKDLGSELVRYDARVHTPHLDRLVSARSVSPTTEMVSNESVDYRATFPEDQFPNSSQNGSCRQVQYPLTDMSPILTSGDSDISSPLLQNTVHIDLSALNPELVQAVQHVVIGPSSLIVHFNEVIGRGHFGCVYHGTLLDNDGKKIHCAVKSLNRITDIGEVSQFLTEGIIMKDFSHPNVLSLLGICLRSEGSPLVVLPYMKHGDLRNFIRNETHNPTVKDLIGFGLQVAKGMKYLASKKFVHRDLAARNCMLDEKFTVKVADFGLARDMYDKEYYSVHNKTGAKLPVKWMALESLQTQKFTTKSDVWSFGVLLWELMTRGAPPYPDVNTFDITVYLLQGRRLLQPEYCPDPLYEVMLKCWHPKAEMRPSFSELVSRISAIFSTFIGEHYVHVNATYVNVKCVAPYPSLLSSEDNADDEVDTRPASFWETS
Description: as §1, §2
GTL-16 c-Met autophosphorylation measured by AlphaScreen® detection: the human MET-amplified gastric cancer cells GTL-16 were plated in 384-well plates at a density of 10′000 cells in 20 ul complete growth medium (DMEM high glucose supplemented with 10% (v/v) heat inactivated fetal calf serum and of 1 mM sodium pyruvate) and were incubated at […]/5% CO2/95% humidity for 20 h. The cells were washed and the 30 ul assay buffer (DMEM high glucose, 1 mM sodium pyruvate, 0.1% bovine serum albumine) was added. Compounds were diluted in 384-well compound plates to obtain 8-point serial dilutions for 40 test compounds in 90% DMSO, as well as a reference compound plus 16 high- and 16 low (inhibited) controls. These compound plates were prediluted 1:200 in assay buffer into a compound predilution plate and 10 ul of prediluted compound solution were transferred to the cell plate using a 384-well pipettor, resulting in a final DMSO concentration of 0.11%. Cells were incubated for 1 h at […]/5% CO2/95% humidity. The supernatant was removed, the cells were lysed in 25 ul of RIPA [radio immuno precipitation assay] lysis buffer supplemented with 2 mM sodium vanadate and a protease inhibitor cocktail, and cell plates were stored at −80° C.
For detection of p-c-Met, an AlphaScreen®-based assay was used. AlphaScreen® (Amplified Luminescent Proximity Homogeneous Assay, ALPHA, Perkin Elmer, U.S.A) is a non-radioactive bead-based proximity assay technology to study biomolecular interactions in a homogenous microtiter plate format. This technique has been adapted to measure the phosphorylation of endogenous cellular proteins in cell lysates by the use of specific antibody pairs against the total protein and a phospho-specific epitope. 5 ul of cell lysate was transferred to 384-well low volume Proxiplates for detection using a 384-well pipettor. First, 5 ul of a premix of an anti-c-Met antibody (0.25 ug/ml f.c.), a biotinylated PY20 antibody (phosphotyrosine antibody, 0.05 ug/ml f.c.) and AlphaScreen® Protein A-coupled acceptor beads (10 ug/ml f.c.) in RIPA buffer supplemented with 0.25% (v/w) TOP BLOCK, 2 mM sodium vanadate, and a protease inhibitor cocktail and was added, the plate was sealed, and incubated on a plate shaker for 2 hours at room temperature. Second, 2 ul of dilution buffer containing AlphaScreen® Streptavidin-coated donor beads (10 ug/ml f.c.) in RIPA buffer was added, and the plate was incubated on plate shaker as above for a further 2 hours. The plate was read on an AlphaScreen® compatible plate reader, using standard AlphaScreen® settings.

T1 sequence (P08581 969-1390): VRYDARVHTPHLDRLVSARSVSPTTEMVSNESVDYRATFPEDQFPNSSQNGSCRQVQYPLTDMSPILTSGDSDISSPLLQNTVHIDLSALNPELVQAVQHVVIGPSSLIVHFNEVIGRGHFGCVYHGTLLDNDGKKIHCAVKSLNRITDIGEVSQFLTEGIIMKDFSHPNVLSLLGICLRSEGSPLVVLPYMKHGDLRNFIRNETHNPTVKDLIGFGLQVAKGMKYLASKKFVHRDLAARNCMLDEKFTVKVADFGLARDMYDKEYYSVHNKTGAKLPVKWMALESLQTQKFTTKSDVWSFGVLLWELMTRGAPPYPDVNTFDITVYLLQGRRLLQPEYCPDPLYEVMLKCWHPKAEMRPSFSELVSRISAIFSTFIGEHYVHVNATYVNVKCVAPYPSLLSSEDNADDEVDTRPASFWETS

Row | SMILES | pIC50 [1] | pIC50 [2] | pIC50 [3]
1 | CC(c1c(F)cc2ncccc2c1F)c1cnc2ccc(N3CCN(c4ccccn4)C(=O)C3)nn12 (racemic) [Example 25, (rac)-4-{3-[1-(5,7-Difluoro-quinolin-6-yl)-ethyl]-imidazo[1,2-b]pyridazin-6-yl}-1-(pyridin-2-yl)piperazin-2-one] | 7.82 | 7.89 | 8.10
2 | CC(c1c(F)cc2ncccc2c1F)c1cnc2ccc(N3CCN(c4ccccc4)C(=O)C3)nn12 (racemic) [Example 22, (rac)-4-{3-[1-(5,7-Difluoro-quinolin-6-yl)-ethyl]-imidazo[1,2-b]pyridazin-6-yl}-1-phenylpiperazin-2-one] | 7.85 | 7.82 | 8.22
3 | CC(c1c(F)cc2ncccc2c1F)c1cnc2ccc(N3CCN(C(N)=O)CC3)nn12 (racemic) [Example 15, (rac)-4-{3-[1-(5,7-Difluoro-quinolin-6-yl)-ethyl]-imidazo[1,2-b]pyridazin-6-yl}-piperazine-1-carboxylic acid amide] | 8.27 | 7.74 | 8.08
4 | CC(c1c(F)cc2ncccc2c1F)c1cnc2ccc(N3CCN(C(=O)C(F)(F)F)CC3)nn12 (racemic) [Example 17, (rac)-1-(4-{3-[1-(5,7-Difluoro-quinolin-6-yl)-ethyl]-imidazo[1,2-b]pyridazin-6-yl}-piperazin-1-yl)-2,2,2-trifluoro-ethanone] | 7.62 | 7.70 | 7.85
5 | CC(=O)N1CCN(c2ccc3ncc([C@@H](C)c4c(F)cc5c(cnn5C)c4F)n3n2)CC1 [Example 53, 1-(4-{3-[(S)-1-(4,6-Difluoro-1-methyl-1H-indazol-5-yl)-ethyl]-imidazo[1,2-b]pyridazin-6-yl}-piperazin-1-yl)-ethanone] | 8.28 | 7.66 | 8.36
6 | CC(c1c(F)cc2ncccc2c1F)c1cnc2ccc(N3CC(=O)NCC3C)nn12 (racemic) [Example 23, (rac)-4-{3-[1-(5,7-Difluoro-quinolin-6-yl)-ethyl]-imidazo[1,2-b]pyridazin-6-yl}-5-methylpiperazin-2-one] | 7.82 | 8.07 | 8.48
7 | CC(c1ccc2ncccc2c1F)c1cnc2ccc(N3CCNC(=O)C3)nn12 (racemic) [Example 47, (rac)-4-{3-[1-(5-Fluoro-quinolin-6-yl)-ethyl]-imidazo[1,2-b]pyridazin-6-yl}-piperazin-2-one] | 7.82 | 7.72 | 8.26
8 | CC(=O)N1CCN(c2ccc3ncc(Cc4c(F)cc5ncccc5c4F)n3n2)CC1 [Example 34, 1-{4-[3-(5,7-Difluoro-quinolin-6-ylmethyl)-imidazo[1,2-b]pyridazin-6-yl]-piperazin-1-yl}-ethanone] | 8.00 | 7.19 | 8.15
9 | CC(c1c(F)cc2ncccc2c1F)c1cnc2ccc(N3CCN(C4CCCC4)C(=O)C3)nn12 (racemic) [Example 20, (rac)-4-{3-[1-(5,7-Difluoro-quinolin-6-yl)-ethyl]-imidazo[1,2-b]pyridazin-6-yl}-1-cyclopentylpiperazin-2-one] | 7.57 | 7.68 | 8.15
10 | CC(c1c(F)cc2ncccc2c1F)c1cnc2ccc(N3CCNC(=O)C3)nn12 (racemic) [Example 3, (rac)-4-{3-[1-(5,7-Difluoro-quinolin-6-yl)-ethyl]-imidazo[1,2-b]pyridazin-6-yl}-piperazin-2-one] | 8.28 | 8.22 | > 8.52
11 | Fc1cc2ncccc2c(F)c1Cc1cnc2ccc(N3CCNCC3)nn12 [Example 32, 5,7-Difluoro-6-(6-piperazin-1-yl-imidazo[1,2-b]pyridazin-3-ylmethyl)-quinoline] | 8.13 | 7.60 | > 8.52
12 | CC(c1c(F)cc2ncccc2c1F)c1cnc2ccc(N3CCNCC3)nn12 (racemic) [Example 6, (rac)-5,7-Difluoro-6-[1-(6-piperazin-1-yl-imidazo[1,2-b]pyridazin-3-yl)-ethyl]-quinoline] | 8.35 | 7.94 | 8.52
